Square brackets hold non-standard residues; d marks the D form. Ends that are not written are not given here. Peptide text beside a SMILES is read from it. Ahx = NCCCCCC(=O)O
Key:
[1] = molecular target: T1, rat pancreatic islet (wild type) GIP-receptor (Rattus norvegicus, UniProt P43219); test: biochemical; format: binding; conditions: for Receptor Binding % Displacement at 10 μM: 10 μM peptide, 125I-GIP; for inhibition at 20 µM: read-out: Receptor Binding % Displacement at 20 μM; for Percent displacement of 125I-GIP from wtGIPR cells: 50 micromolar peptide analogue, FIG. 9
T1 construct: expressed in transfected cells; host or cells: CHO-K1 (Chinese hamster ovary)
T1 sequence (P43219 19-455): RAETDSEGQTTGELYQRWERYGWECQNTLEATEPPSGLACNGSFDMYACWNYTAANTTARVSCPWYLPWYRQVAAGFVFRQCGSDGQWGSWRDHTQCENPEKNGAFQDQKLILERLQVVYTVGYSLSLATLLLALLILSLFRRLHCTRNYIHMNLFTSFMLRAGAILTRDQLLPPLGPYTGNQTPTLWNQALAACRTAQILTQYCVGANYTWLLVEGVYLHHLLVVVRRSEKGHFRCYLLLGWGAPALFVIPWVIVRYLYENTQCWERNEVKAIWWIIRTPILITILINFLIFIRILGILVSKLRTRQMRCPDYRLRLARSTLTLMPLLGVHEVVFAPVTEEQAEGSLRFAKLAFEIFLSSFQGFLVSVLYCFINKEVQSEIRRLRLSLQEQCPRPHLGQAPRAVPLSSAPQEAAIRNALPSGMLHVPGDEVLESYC
Protocol: (§1) Cells were cultured in DMEM/F12, supplemented with 10% newborn calf serum, 50 units/ml penicillin G, and 50 μg/ml streptomycin (Culture media and antibiotics from Gibco BRL, Life Technologies). Cells were grown in 75 cm^2 flasks until 80-90% confluent, when they were split and seeded onto 24 well plates at a density of 50,000 cells/well. Experiments were carried out 48 h later.
Binding studies using ^125I-labeled spGIP1-42, purified by high performance liquid chromatography (HPLC), were performed essentially as described previously-[21]. wtGIP-R1 Cells (1-5×10^5/well) were washed twice at 4° C. in binding buffer (BB), consisting of DMEM/F12 (GIBCO), 15 mM HEPES, 0.1% bovine serum albumin (BSA), 1% Trasylol (aprotinin; Bayer), pH 7.4. They were incubated for 12-16 h at 4° C. with ^125I-spGIP (50,000 cpm) in the presence or absence of unlabeled GIP1-42 or analogue. Following incubation, cells were washed twice with ice cold buffer, solubilized with 0.1 M NaOH (1 ml), and transferred to culture tubes for counting of cell-associated radioactivity. Nonspecific binding was defined as that measured in the presence of 1 μM GIP1-42 or GIP1-30, and specific binding expressed as % of binding in the absence of competitor (% B/Bo).

[2] = molecular target: T1, rat pancreatic islet (wild type) GIP-receptor; test: cAMP production in CHO-K1 cells expressing the GIP-receptor (wtGIP-R1 cells); format: cell-based; conditions: for cAMP Production (Fold Basal) 10 μM: 10 μM peptide; for cAMP Production (Fold Basal) 10 μM / cAMP Production (Fold Basal) 20 μM: basal cyclic AMP = 2.737 ± 0.079 fmol/1000 cells; for cAMP Production (Fold Basal) 20 μM: 20 μM peptide; for cAMP Production Max. cAMP (Fold Basal): Table 3, cyclic AMP stimulated by 20 μM peptide if plateau levels were not achieved
Protocol: as §1
Cells were extracted with 70% ethanol and cAMP levels measured by radioimmunoassay (Biomedical Technologies, Stoughton, Mass.). Data are expressed as fmol/1000 cells or % maximal GIP1-42-stimulated cAMP production (inhibition experiments).

## 1-7NH2: GIP fragment 1-7 amide (YAEGTFI-NH2)
[1]
  Receptor Binding % Displacement at 10 μM: −6.1 ± 3.4%

## CC[C@H](C)[C@H](NC(=O)[C@H](CCCCN)NC(=O)[C@@H](N)CC(=O)O)C(=O)N[C@@H](Cc1c[nH]cn1)C(=O)N[C@@H](CCC(N)=O)C(=O)N[C@@H](CCC(N)=O)C(=O)N[C@@H](CC(=O)O)C(=O)N[C@@H](Cc1ccccc1)C(=O)N[C@H](C(=O)N[C@@H](CC(N)=O)C(=O)N[C@@H](Cc1c[nH]c2ccccc12)C(=O)N[C@@H](CC(C)C)C(=O)N[C@@H](CC(C)C)C(=O)N[C@@H](C)C(=O)N[C@@H](CCC(N)=O)C(=O)N[C@@H](CCCCN)C(=O)NCC(=O)N[C@@H](CCCCN)C(=O)N[C@@H](CCCCN)C(=O)N[C@@H](CC(N)=O)C(=O)N[C@@H](CC(=O)O)C(=O)N[C@@H](Cc1c[nH]c2ccccc12)C(=O)N[C@@H](CCCCN)C(=O)N[C@@H](Cc1c[nH]cn1)C(=O)N[C@@H](CC(N)=O)C(=O)N[C@H](C(=O)N[C@H](C(=O)N[C@@H](CCC(N)=O)C(=O)O)[C@@H](C)O)[C@@H](C)CC)C(C)C [15-42OH]
[2]
  cAMP Production (Fold Basal) 10 μM: 1.02 ± 0.10 Fold Basal
  cAMP Production (Fold Basal) 20 μM: 1.01 ± 0.03 Fold Basal

## CC(C)C[C@H](NC(=O)[C@H](CC(C)C)NC(=O)[C@H](Cc1c[nH]c2ccccc12)NC(=O)[C@H](CC(N)=O)NC(=O)[C@@H](NC(=O)[C@H](Cc1ccccc1)NC(=O)[C@H](CC(=O)O)NC(=O)[C@H](CCC(N)=O)NC(=O)[C@H](CCC(N)=O)NC(=O)CCCCCNC(=O)[C@H](Cc1ccccc1)NC(=O)[C@@H](NC(=O)CNC(=O)[C@H](CCC(=O)O)NC(=O)[C@H](C)NC(=O)[C@@H](N)Cc1ccc(O)cc1)[C@@H](C)O)C(C)C)C(=O)N[C@@H](C)C(=O)N[C@@H](CCC(N)=O)C(=O)N[C@@H](CCCCN)C(N)=O [GIP(1-6)(Ahx)1(19-30)NH2] (H-YAEGTF[Ahx]QQDFVNWLLAQK-NH2; N-terminus assumed)
[2]
  cAMP Production Max. cAMP (Fold Basal): 95.9 ± 8.6 Fold Basal
[1]
  inhibition at 20 µM: 62 ± 4.3%

## CC(C)C[C@H](NC(=O)[C@H](CC(C)C)NC(=O)[C@H](Cc1c[nH]c2ccccc12)NC(=O)[C@H](CC(N)=O)NC(=O)[C@@H](NC(=O)[C@H](Cc1ccccc1)NC(=O)[C@H](CC(=O)O)NC(=O)[C@H](CCC(N)=O)NC(=O)[C@H](CCC(N)=O)NC(=O)CCCCCNC(=O)CCCCCNC(=O)[C@H](Cc1ccccc1)NC(=O)[C@@H](NC(=O)CNC(=O)[C@H](CCC(=O)O)NC(=O)[C@H](C)NC(=O)[C@@H](N)Cc1ccc(O)cc1)[C@@H](C)O)C(C)C)C(=O)N[C@@H](C)C(=O)N[C@@H](CCC(N)=O)C(=O)N[C@@H](CCCCN)C(N)=O [GIP(1-6)(Ahx)2(19-30)NH2] (H-YAEGTF[Ahx][Ahx]QQDFVNWLLAQK-NH2; N-terminus assumed)
[2]
  cAMP Production Max. cAMP (Fold Basal): 2.55 ± 0.84 Fold Basal
[1]
  inhibition at 20 µM: 75.3 ± 3.3%

## CC(C)C[C@H](NC(=O)[C@H](CC(C)C)NC(=O)[C@H](Cc1c[nH]c2ccccc12)NC(=O)[C@H](CC(N)=O)NC(=O)[C@@H](NC(=O)[C@H](Cc1ccccc1)NC(=O)[C@H](CC(=O)O)NC(=O)[C@H](CCC(N)=O)NC(=O)[C@H](CCC(N)=O)NC(=O)CCCCCNC(=O)CCCCCNC(=O)CCCCCNC(=O)[C@H](Cc1ccccc1)NC(=O)[C@@H](NC(=O)CNC(=O)[C@H](CCC(=O)O)NC(=O)[C@H](C)NC(=O)[C@@H](N)Cc1ccc(O)cc1)[C@@H](C)O)C(C)C)C(=O)N[C@@H](C)C(=O)N[C@@H](CCC(N)=O)C(=O)N[C@@H](CCCCN)C(N)=O [GIP(1-6)(Ahx)3(19-30)NH2] (H-YAEGTF[Ahx][Ahx][Ahx]QQDFVNWLLAQK-NH2; N-terminus assumed)
[2]
  cAMP Production Max. cAMP (Fold Basal): 13.5 ± 1.5 Fold Basal
[1]
  inhibition at 20 µM: 67.1 ± 1%

## CC[C@H](C)[C@H](NC(=O)[C@H](CO)NC(=O)[C@H](Cc1ccc(O)cc1)NC(=O)[C@H](CC(=O)O)NC(=O)[C@H](CO)NC(=O)[C@@H](NC(=O)[C@H](Cc1ccccc1)NC(=O)[C@@H](NC(=O)CNC(=O)[C@H](CCC(=O)O)NC(=O)[C@H](C)NC(=O)[C@@H](N)Cc1ccc(O)cc1)[C@@H](C)O)[C@@H](C)CC)C(=O)N[C@@H](C)C(=O)N[C@@H](CCSC)C(=O)NCCCCCC(=O)N[C@@H](CCC(N)=O)C(=O)N[C@@H](CCC(N)=O)C(=O)N[C@@H](CC(=O)O)C(=O)N[C@@H](Cc1ccccc1)C(=O)N[C@H](C(=O)N[C@@H](CC(N)=O)C(=O)N[C@@H](Cc1c[nH]c2ccccc12)C(=O)N[C@@H](CC(C)C)C(=O)N[C@@H](CC(C)C)C(=O)N[C@@H](C)C(=O)N[C@@H](CCC(N)=O)C(=O)N[C@@H](CCCCN)C(N)=O)C(C)C [GIP(1-14)(Ahx)1(19-30)NH2] (H-YAEGTFISDYSIAM[Ahx]QQDFVNWLLAQK-NH2; N-terminus assumed)
[2]
  cAMP Production Max. cAMP (Fold Basal): 102.1 ± 5.0 Fold Basal
[1]
  inhibition at 20 µM: 86.1 ± 1.9%

## CC[C@H](C)[C@H](NC(=O)[C@H](CO)NC(=O)[C@H](Cc1ccc(O)cc1)NC(=O)[C@H](CC(=O)O)NC(=O)[C@H](CO)NC(=O)[C@@H](NC(=O)[C@H](Cc1ccccc1)NC(=O)[C@@H](NC(=O)CNC(=O)[C@H](CCC(=O)O)NC(=O)[C@H](C)NC(=O)[C@@H](N)Cc1ccc(O)cc1)[C@@H](C)O)[C@@H](C)CC)C(=O)N[C@@H](C)C(=O)N[C@@H](CCSC)C(=O)NCCCCCC(=O)NCCCCCC(=O)N[C@@H](CCC(N)=O)C(=O)N[C@@H](CCC(N)=O)C(=O)N[C@@H](CC(=O)O)C(=O)N[C@@H](Cc1ccccc1)C(=O)N[C@H](C(=O)N[C@@H](CC(N)=O)C(=O)N[C@@H](Cc1c[nH]c2ccccc12)C(=O)N[C@@H](CC(C)C)C(=O)N[C@@H](CC(C)C)C(=O)N[C@@H](C)C(=O)N[C@@H](CCC(N)=O)C(=O)N[C@@H](CCCCN)C(N)=O)C(C)C [GIP(1-14)(Ahx)2(19-30)NH2] (H-YAEGTFISDYSIAM[Ahx][Ahx]QQDFVNWLLAQK-NH2; N-terminus assumed)
[2]
  cAMP Production Max. cAMP (Fold Basal): 95.9 ± 3.2 Fold Basal
[1]
  inhibition at 20 µM: 85.8 ± 1.6%

## CC[C@H](C)[C@H](NC(=O)[C@H](CO)NC(=O)[C@H](Cc1ccc(O)cc1)NC(=O)[C@H](CC(=O)O)NC(=O)[C@H](CO)NC(=O)[C@@H](NC(=O)[C@H](Cc1ccccc1)NC(=O)[C@@H](NC(=O)CNC(=O)[C@H](CCC(=O)O)NC(=O)[C@H](C)NC(=O)[C@@H](N)Cc1ccc(O)cc1)[C@@H](C)O)[C@@H](C)CC)C(=O)N[C@@H](C)C(=O)N[C@@H](CCSC)C(=O)N[C@@H](CC(=O)O)C(=O)N[C@@H](CCCCN)C(=O)N[C@H](C(=O)N[C@@H](Cc1c[nH]cn1)C(=O)N[C@@H](CCC(N)=O)C(=O)N[C@@H](CCC(N)=O)C(=O)N[C@@H](CC(=O)O)C(=O)N[C@@H](Cc1ccccc1)C(=O)N[C@H](C(=O)N[C@@H](CC(N)=O)C(=O)N[C@@H](Cc1c[nH]c2ccccc12)C(=O)N[C@@H](CC(C)C)C(=O)N[C@@H](CC(C)C)C(=O)N[C@@H](C)C(=O)N[C@@H](CCC(N)=O)C(=O)N[C@@H](CCCCN)C(=O)NCC(=O)N[C@@H](CCCCN)C(=O)N[C@@H](CCCCN)C(=O)N[C@@H](CC(N)=O)C(=O)N[C@@H](CC(=O)O)C(=O)N[C@@H](Cc1c[nH]c2ccccc12)C(=O)N[C@@H](CCCCN)C(=O)N[C@@H](Cc1c[nH]cn1)C(=O)N[C@@H](CC(N)=O)C(=O)N[C@H](C(=O)N[C@H](C(=O)N[C@@H](CCC(N)=O)C(=O)O)[C@@H](C)O)[C@@H](C)CC)C(C)C)[C@@H](C)CC [GIP(1-42)OH, reference compound]
[1]
  Receptor Binding % Displacement at 10 μM: 100%
  inhibition at 20 µM: 100%

## KIRQQDFVNWLLAQK-NH2 [16-30NH2]
[2]
  cAMP Production (Fold Basal) 10 μM: 1.04 ± 0.06 Fold Basal
  cAMP Production (Fold Basal) 20 μM: 0.80 ± 0.02 Fold Basal

## YAAGTFISDYSIAM-OH [A3]
[1]
  Percent displacement of 125I-GIP from wtGIPR cells: unable to displace measurable

## YAEGAFISDYSIAM-OH [A5]
[1]
  Percent displacement of 125I-GIP from wtGIPR cells: unable to displace measurable
